From patent publication US5763597A, “Orally active adenosine kinase inhibitors” (priority 1996, dated 1998)

Assays:
[1] = tested on: liver enzymes and total bilirubin in female SA rats; test: Liver toxicity (serum liver enzymes and bilirubin); format: in vivo; settings: rat, 2 x 37.5 μmole/kg iv infusion, 12 h after second dose; for Total Bilirubin: vehicle 0.10 ±0.04; for SGPT: vehicle 80 ±10; for SGOT: vehicle 102 ±12; for Alkaline Phosphatase: vehicle 140 ±50
Procedure: Female SA rats (150-200 g) were anesthetized with halothane and a chronic catheter was placed in the internal jugular vein. The animals were allowed to recover for 3 days. […] Twelve hours later, an additional 37.5 μmole/kg was infused over 40 minutes (total dose=75 μmole/kg). Twelve hours after the second dose, the animals were anesthetized with halothane and exsanguinated through the descending aorta. Liver enzymes (serum glutamic-oxaloacetic transaminase (SGOT), serum glutamic-pyruvic transaminase (SGPT), alkaline phosphatase) and total bilirubin in the serum samples were determined by a commercial laboratory.

[2] = target: adenosine kinase; test: AK inhibition (adenosine kinase activity, [U-14C] adenosine); format: biochemical, partially purified pig heart or recombinant human; settings: 0.5 μM adenosine, 1 mM ATP, pH 7.0, 20 min; pig heart or recombinant human enzyme
Procedure: Adenosine kinase activity was measured essentially as described by Yamada et al. Biochim. Biophys. Acta 660, 3643 (1988) with a few minor modifications. Assay mixtures contained 50 mM TRIS-maleate buffer, pH 7.0, 0.1% BSA, 1 mM ATP 1 mM MgCl2, 0.5 μM [U-^14 C] adenosine (400-600 mCi/mmol) and varying duplicate concentrations of inhibitor. […] The amount of ^14 C-AMP was quantified by scintillation counting.

[3] = tested on: carrageenan paw swelling in rats; test: Anti-inflammatory activity, carrageenan paw swelling; format: in vivo; settings: rat, swelling after 3 hours; for Carrageenan Paw (% inh) ip: 10 mg/kg ip, 30 min before carrageenan; for Carrageenan Paw (% inh) po: 10 mg/kg po, 1 h before carrageenan

| IC50 [2] [nM] | Structure (SMILES) | also measured |
| --- | --- | --- |
|  | C[C@H]1O[C@@H](n2cc(I)c3c(N)ncnc32)[C@H](O)[C@@H]1O [REF. A, reference compound] | Total Bilirubin [1]: 0.76 mg/dL; SGPT [1]: 76 IU/L |
|  | NC[C@H]1O[C@@H](n2nc(Br)c3c(N)ncnc32)[C@H](O)[C@@H]1O [REF. B, 4amino-1-(5-amino-5-deoxy-1-D-ribofuranosyl)-3-bromopyrazolo[3,4d]pyrimidine, reference compound] | Total Bilirubin [1]: 0.30 mg/dL; SGPT [1]: 41 IU/L; SGOT [1]: 100 IU/L |
| 1 | C[C@H]1O[C@@H](n2cc(-c3ccccc3)c3c(Nc4cc(F)cc(F)c4)ncnc32)[C@H](O)[C@@H]1O [compound 10] |  |
| 4 | C[C@H]1O[C@@H](n2cc(-c3ccccc3)c3c(Nc4ccc(F)c(F)c4)ncnc32)[C@H](O)[C@@H]1O [compound 11] |  |
| 16 | C[C@H]1O[C@@H](n2cc(-c3cccc(Cl)c3)c3c(Nc4ccccc4)ncnc32)[C@H](O)[C@@H]1O [compound 15] |  |
| 9 | Cc1ccc(-c2cn([C@@H]3O[C@H](C)[C@@H](O)[C@H]3O)c3ncnc(Nc4ccccc4)c23)cc1 [compound 16] |  |
| 17 | C[C@H]1O[C@@H](n2cc(-c3ccccc3)c3c(Nc4cccc(Cl)c4)ncnc32)[C@H](O)[C@@H]1O [compound 17] |  |
| 4 | Cc1cccc(Nc2ncnc3c2c(-c2ccccc2)cn3[C@@H]2O[C@H](C)[C@@H](O)[C@H]2O)c1 [compound 18] |  |
| 20 | CCc1ccc(Nc2ncnc3c2c(-c2ccccc2)cn3[C@@H]2O[C@H](C)[C@@H](O)[C@H]2O)cc1 [compound 29] | Carrageenan Paw (% inh) ip [3]: 46.1 % inh; Carrageenan Paw (% inh) po [3]: 10.7 % inh |
| 28 | C[C@H]1O[C@@H](n2cc(-c3cccc([N+](=O)[O-])c3)c3c(Nc4ccc(F)cc4)ncnc32)[C@H](O)[C@@H]1O [compound 30] |  |
| 30 | C[C@H]1O[C@@H](n2cc(-c3ccccc3)c3c(NCc4ccccc4)ncnc32)[C@H](O)[C@@H]1O [compound 38] |  |
| 42 | C[C@H]1O[C@@H](n2c(Br)c(-c3ccccc3)c3c(Nc4ccc(F)cc4)ncnc32)[C@H](O)[C@@H]1O [compound 41] |  |
| 5 | OC[C@H]1O[C@@H](n2nc(-c3ccccc3)c3c(Nc4ccccc4)ncnc32)[C@H](O)[C@@H]1O [compound 88] |  |
| 17 | COc1ccc(Nc2ncnc3c2c(-c2ccccc2)nn3[C@@H]2O[C@H](C)[C@@H](O)[C@H]2O)cc1 [compound 89] |  |
| 8 | COc1ccc(Nc2ncnc3c2c(-c2ccccc2)nn3[C@@H]2O[C@H](CN=[N+]=[N-])[C@@H](O)[C@H]2O)cc1 [compound 90] |  |
| 11 | C[C@H]1O[C@@H](n2nc(-c3ccccc3)c3c(Nc4ccc(Cl)cc4)ncnc32)[C@H](O)[C@@H]1O [compound 91] |  |
| 17 | [N-]=[N+]=NC[C@H]1O[C@@H](n2nc(-c3ccccc3)c3c(Nc4ccc(Cl)cc4)ncnc32)[C@H](O)[C@@H]1O [compound 92] |  |
| 20 | Cc1ccc(-c2nn([C@@H]3O[C@H](CN=[N+]=[N-])[C@@H](O)[C@H]3O)c3ncnc(Nc4ccccc4)c23)cc1 [compound 93] |  |
| 3 | COc1ccc(-c2nn([C@@H]3O[C@H](CN=[N+]=[N-])[C@@H](O)[C@H]3O)c3ncnc(Nc4ccccc4)c23)cc1 [compound 94] |  |
| 15 | [N-]=[N+]=NC[C@H]1O[C@@H](n2nc(-c3ccc(Cl)cc3)c3c(Nc4ccccc4)ncnc32)[C@H](O)[C@@H]1O [compound 96] |  |
| 1 | C[C@H]1O[C@@H](n2cc(-c3ccccc3)c3c(Nc4ccc(CC#N)cc4)ncnc32)[C@H](O)[C@@H]1O [compound 126] |  |
| 4 | C[C@H]1O[C@@H](n2cc(-c3ccccc3)c3c(Nc4ccc(I)cc4)ncnc32)[C@H](O)[C@@H]1O [compound 128] | Carrageenan Paw (% inh) ip [3]: 18.9 % inh; Carrageenan Paw (% inh) po [3]: 0.0 % inh |
|  | C[C@H]1O[C@@H](n2cc(-c3ccc(CNC(N)=O)cc3)c3c(Nc4ccc(F)cc4)ncnc32)[C@H](O)[C@@H]1O [compound 197] | Carrageenan Paw (% inh) ip [3]: 16.3 % inh; Carrageenan Paw (% inh) po [3]: 21.5 % inh |

| Structure (SMILES) | IC50 [2] [nM] | also measured |
| --- | --- | --- |
| COc1ccc(Nc2ncnc3c2c(-c2ccccc2)cn3[C@@H]2O[C@H](C)[C@@H](O)[C@H]2O)cc1 [compound 13] | 6 |  |
| C[C@H]1O[C@@H](n2cc(-c3ccccc3)c3c(Nc4cccc(F)c4)ncnc32)[C@H](O)[C@@H]1O [compound 19] | 2 |  |
| C[C@H]1O[C@@H](n2cc(-c3ccccc3)c3c(Nc4ccc(O)cc4)ncnc32)[C@H](O)[C@@H]1O [compound 20] | 32 |  |
| C[C@H]1O[C@@H](n2cc(-c3ccc(F)cc3)c3c(Nc4ccccc4)ncnc32)[C@H](O)[C@@H]1O [compound 24] | 1 | Carrageenan Paw (% inh) ip [3]: 35.6 % inh; Carrageenan Paw (% inh) po [3]: 21.3 % inh |
| COc1ccc(-c2cn([C@@H]3O[C@H](C)[C@@H](O)[C@H]3O)c3ncnc(Nc4ccc(C(N)=O)cc4)c23)cc1 [compound 31] | 2 | Carrageenan Paw (% inh) ip [3]: 17.2 % inh; Carrageenan Paw (% inh) po [3]: 0 % inh |
| CSc1ccc(Nc2ncnc3c2c(-c2ccccc2)cn3[C@@H]2O[C@H](C)[C@@H](O)[C@H]2O)cc1 [compound 40] | 2 |  |
| C[C@H]1O[C@@H](n2nc(-c3ccccc3)c3c(Nc4ccccc4)ncnc32)[C@H](O)[C@@H]1O [compound 86] | 4.5 |  |
| [N-]=[N+]=NC[C@H]1O[C@@H](n2nc(-c3ccccc3)c3c(Nc4ccccc4)ncnc32)[C@H](O)[C@@H]1O [compound 87] | 4.5 |  |
| COc1ccc(-c2nn([C@@H]3O[C@H](CN=[N+]=[N-])[C@@H](O)[C@H]3O)c3ncnc(Nc4ccc(C)cc4)c23)cc1 [compound 95] | 7 |  |
| CCOCc1ccc(Nc2ncnc3c2c(-c2ccccc2)cn3[C@@H]2O[C@H](C)[C@@H](O)[C@H]2O)cc1 [compound 125] | 2 | Carrageenan Paw (% inh) ip [3]: 24.4 % inh; Carrageenan Paw (% inh) po [3]: 0.0 % inh |
| C[C@H]1O[C@@H](n2cc(-c3ccccc3)c3c(Nc4ccc(NC(=O)C(F)(F)F)cc4)ncnc32)[C@H](O)[C@@H]1O [compound 129] | 2 | Total Bilirubin [1]: 0.52 mg/dL; SGPT [1]: 54 IU/L; SGOT [1]: 162 IU/L; Alkaline Phosphatase [1]: 110 IU/L; Carrageenan Paw (% inh) ip [3]: 48.9 % inh; Carrageenan Paw (% inh) po [3]: 35.7 % inh |
| C[C@H]1O[C@@H](n2cc(-c3cccc(N)c3)c3c(Nc4ccc(F)cc4)ncnc32)[C@H](O)[C@@H]1O [compound 131] | 3 | Total Bilirubin [1]: 0.10 mg/dL; SGPT [1]: 65 IU/L; SGOT [1]: 120 IU/L; Alkaline Phosphatase [1]: 169 IU/L; Carrageenan Paw (% inh) ip [3]: 44.2 % inh; Carrageenan Paw (% inh) po [3]: 15.9 % inh |
| C[C@H]1O[C@@H](n2cc(-c3ccc(C#N)cc3)c3c(Nc4ccc(F)cc4)ncnc32)[C@H](O)[C@@H]1O [compound 132] | 10 |  |
